# Test results published in ChEMBL document CHEMBL1125599, “Cholinergic activity of acetylenic imidazoles and related compounds” (J Med Chem, 1991).
# Test system: Mus musculus
# Assay: ED50 value as cholinergic agonism by measuring lacrimation in mice (in vivo)
# Type: functional
row,Compound,ED50
1,Cc1cn(CC#CCN2CCCC2=O)c(C)n1,> 100 mg/kg
2,CN(C)CC#CCN(C)C(=O)N(C)C,6.6 mg/kg
3,CN1CCN(CC#CCn2ccnc2)C1=O,1.4 mg/kg
4,CN(C)CC#CCN1CCN(C)C1=O,0.54 mg/kg
5,CCOC(=O)N(C)CC#CCn1ccnc1,> 100 mg/kg
6,CC(=O)N(C)C(C)C#CCn1cncc1C (stereo unspecified),> 100 mg/kg
7,O=C1CCCN1CC#CCn1ccnc1,0.45 mg/kg
8,COC(=O)N(C)CC#CCN(C)C,9.7 mg/kg
9,CN(C)CC#CCn1ccn(C)c1=O,8 mg/kg
10,CC(=O)N(C)C(C)C#CCN1CCCC1 (stereo unspecified),0.66 mg/kg
11,COC(=O)N(C)C(C)C#CCN(C)C (stereo unspecified),17.3 mg/kg
12,Cc1cncn1CC#CCN1CCNC1=O,> 100 mg/kg
13,COC(=O)N(C)CC#CCn1ccnc1,4.5 mg/kg
14,CC(C#CCn1ccnc1)N1CCCC1=O (stereo unspecified),> 100 mg/kg
15,CC(C#CCN1CCCC1)N1CCN(C)C1=O (stereo unspecified),> 30 mg/kg
16,CC(=O)N(C)CC#CCN(C)C,1.73 mg/kg

# Test system: Mus musculus
# Assay: ED50 value determined as oxotremorine antagonism by measuring salivation in mice (in vivo)
# Type: functional
row,Compound,ED50
1,CN(C)C(=O)N(C)CC#CCn1ccnc1,> 100 mg/kg
2,Cc1cncn1CC#CCN1CCN(C)C1=O,> 100 mg/kg
3,CC(=O)N(C)CC#CCn1cncc1C,> 100 mg/kg
4,Cc1cn(CC#CCN2CCCC2=O)c(C)n1,14.2 mg/kg
5,CN(C)CC#CCN(C)C(=O)N(C)C,> 100 mg/kg
6,CN1CCN(CC#CCn2ccnc2)C1=O,> 100 mg/kg
7,Cc1nccn1CC#CCN1CCCC1=O,> 100 mg/kg
8,CN(C)CC#CCN1CCN(C)C1=O,> 10 mg/kg
9,CCOC(=O)N(C)CC#CCn1ccnc1,97 mg/kg
10,CC(=O)N(C)C(C)C#CCn1cncc1C (stereo unspecified),3.7 mg/kg
11,O=C1CCCN1CC#CCn1ccnc1,> 100 mg/kg
12,COC(=O)N(C)CC#CCN(C)C,> 30 mg/kg
13,CN(C)CC#CCn1ccn(C)c1=O,> 100 mg/kg
14,CC(=O)N(C)C(C)C#CCN1CCCC1 (stereo unspecified),> 10 mg/kg
15,COC(=O)N(C)C(C)C#CCN(C)C (stereo unspecified),> 100 mg/kg
16,Cc1cncn1CC#CCN1CCNC1=O,66 mg/kg
17,COC(=O)N(C)CC#CCn1ccnc1,> 100 mg/kg
18,CC(C#CCn1ccnc1)N1CCCC1=O (stereo unspecified),3.7 mg/kg
19,CC(C#CCN1CCCC1)N1CCN(C)C1=O (stereo unspecified),25 mg/kg
20,CC(=O)N(C)CC#CCN(C)C,> 10 mg/kg

# Test system: Mus musculus
# Assay: ED50 value as cholinergic agonist by measuring tremors in mice (in vivo)
# Type: functional
row,Compound,ED50
1,CN(C)C(=O)N(C)CC#CCn1ccnc1,11.8 mg/kg
2,Cc1cncn1CC#CCN1CCN(C)C1=O,2.5 mg/kg
3,CC(=O)N(C)CC#CCn1cncc1C,5.4 mg/kg
4,Cc1cn(CC#CCN2CCCC2=O)c(C)n1,> 100 mg/kg
5,CN(C)CC#CCN(C)C(=O)N(C)C,2 mg/kg
6,CN1CCN(CC#CCn2ccnc2)C1=O,0.97 mg/kg
7,Cc1nccn1CC#CCN1CCCC1=O,0.25 mg/kg
8,CN(C)CC#CCN1CCN(C)C1=O,0.37 mg/kg
9,CCOC(=O)N(C)CC#CCn1ccnc1,> 100 mg/kg
10,CC(=O)N(C)C(C)C#CCn1cncc1C (stereo unspecified),> 100 mg/kg
11,O=C1CCCN1CC#CCn1ccnc1,0.45 mg/kg
12,COC(=O)N(C)CC#CCN(C)C,17.3 mg/kg
13,CN(C)CC#CCn1ccn(C)c1=O,5.4 mg/kg
14,CC(=O)N(C)C(C)C#CCN1CCCC1 (stereo unspecified),> 10 mg/kg
15,COC(=O)N(C)C(C)C#CCN(C)C (stereo unspecified),11.8 mg/kg
16,COC(=O)N(C)CC#CCn1ccnc1,2 mg/kg
17,CC(C#CCn1ccnc1)N1CCCC1=O (stereo unspecified),> 100 mg/kg
18,CC(C#CCN1CCCC1)N1CCN(C)C1=O (stereo unspecified),> 30 mg/kg
19,CC(=O)N(C)CC#CCN(C)C,0.97 mg/kg

# Target: Muscarinic acetylcholine receptor
# Assay: Binding affinity to muscarinic acetylcholine receptor was determined in presence of [3H]QNB radioligand (in vitro)
# Type: protein assay
row,Compound,Ki
1,CN(C)CC#CCN1CCCC1=O,2600 nM
2,CN(C)C(=O)N(C)CC#CCn1ccnc1,> 10000 nM
3,Cc1cncn1CC#CCN1CCN(C)C1=O,381 nM
4,CC(=O)N(C)CC#CCn1cncc1C,172 nM
5,Cc1cn(CC#CCN2CCCC2=O)c(C)n1,160 nM
6,CN(C)CC#CCN(C)C(=O)N(C)C,> 10000 nM
7,CN1CCN(CC#CCn2ccnc2)C1=O,1868 nM
8,Cc1nccn1CC#CCN1CCCC1=O,3.8 nM
9,CN(C)CC#CCN1CCN(C)C1=O,180 nM
10,CCOC(=O)N(C)CC#CCn1ccnc1,> 10000 nM
11,CC(=O)N(C)C(C)C#CCn1cncc1C (stereo unspecified),184 nM
12,O=C1CCCN1CC#CCn1ccnc1,600 nM
13,COC(=O)N(C)CC#CCN(C)C,> 10000 nM
14,CN(C)CC#CCn1ccn(C)c1=O,> 10000 nM
15,COC(=O)N(C)C(C)C#CCN(C)C (stereo unspecified),> 10000 nM
16,Cc1cncn1CC#CCN1CCNC1=O,> 10000 nM
17,COC(=O)N(C)CC#CCn1ccnc1,> 10000 nM
18,CC(C#CCn1ccnc1)N1CCCC1=O (stereo unspecified),556 nM
19,CC(C#CCN1CCCC1)N1CCN(C)C1=O (stereo unspecified),130 nM
20,CC(=O)N(C)CC#CCN(C)C,> 10000 nM

# Test system: Mus musculus
# Assay: ED50 value determined as oxotremorine antagonism by measuring tremors in mice (in vivo)
# Type: functional
row,Compound,ED50
1,CN(C)C(=O)N(C)CC#CCn1ccnc1,> 100 mg/kg
2,Cc1cncn1CC#CCN1CCN(C)C1=O,> 100 mg/kg
3,CC(=O)N(C)CC#CCn1cncc1C,> 100 mg/kg
4,CN(C)CC#CCN(C)C(=O)N(C)C,> 100 mg/kg
5,Cc1nccn1CC#CCN1CCCC1=O,> 100 mg/kg
6,CCOC(=O)N(C)CC#CCn1ccnc1,> 100 mg/kg
7,COC(=O)N(C)CC#CCN(C)C,> 30 mg/kg
8,COC(=O)N(C)C(C)C#CCN(C)C (stereo unspecified),> 100 mg/kg
9,Cc1cncn1CC#CCN1CCNC1=O,> 100 mg/kg
10,CC(=O)N(C)CC#CCN(C)C,> 10 mg/kg

# Test system: Mus musculus
# Assay: ED50 value as cholinergic agonist by measuring salivation in mice (in vivo)
# Type: functional
row,Compound,ED50
1,CN(C)C(=O)N(C)CC#CCn1ccnc1,25.4 mg/kg
2,Cc1cncn1CC#CCN1CCN(C)C1=O,14 mg/kg
3,CC(=O)N(C)CC#CCn1cncc1C,45 mg/kg
4,Cc1cn(CC#CCN2CCCC2=O)c(C)n1,> 100 mg/kg
5,CN(C)CC#CCN(C)C(=O)N(C)C,8 mg/kg
6,CN1CCN(CC#CCn2ccnc2)C1=O,1.4 mg/kg
7,Cc1nccn1CC#CCN1CCCC1=O,0.37 mg/kg
8,CN(C)CC#CCN1CCN(C)C1=O,0.54 mg/kg
9,CCOC(=O)N(C)CC#CCn1ccnc1,> 100 mg/kg
10,CC(=O)N(C)C(C)C#CCn1cncc1C (stereo unspecified),> 100 mg/kg
11,O=C1CCCN1CC#CCn1ccnc1,0.45 mg/kg
12,COC(=O)N(C)CC#CCN(C)C,14.3 mg/kg
13,CN(C)CC#CCn1ccn(C)c1=O,8 mg/kg
14,CC(=O)N(C)C(C)C#CCN1CCCC1 (stereo unspecified),0.55 mg/kg
15,COC(=O)N(C)C(C)C#CCN(C)C (stereo unspecified),17.3 mg/kg
16,Cc1cncn1CC#CCN1CCNC1=O,> 100 mg/kg
17,COC(=O)N(C)CC#CCn1ccnc1,4.5 mg/kg
18,CC(C#CCn1ccnc1)N1CCCC1=O (stereo unspecified),> 100 mg/kg
19,CC(C#CCN1CCCC1)N1CCN(C)C1=O (stereo unspecified),> 30 mg/kg
20,CC(=O)N(C)CC#CCN(C)C,1.73 mg/kg

# Target: Muscarinic acetylcholine receptor (Rattus norvegicus) (UniProt P08482+P08483+P08485+P08911+P10980)
# Assay: Ratio of Ki value for QNB to that of Ki value for Oxo-M.
# Type: protein assay
row,Compound,Ki ratio
1,CN(C)CC#CCN1CCCC1=O,2360
2,Cc1cncn1CC#CCN1CCN(C)C1=O,44
3,CC(=O)N(C)CC#CCn1cncc1C,48
4,Cc1cn(CC#CCN2CCCC2=O)c(C)n1,2.4
5,CN1CCN(CC#CCn2ccnc2)C1=O,890
6,Cc1nccn1CC#CCN1CCCC1=O,13
7,CN(C)CC#CCN1CCN(C)C1=O,40
8,CC(=O)N(C)C(C)C#CCn1cncc1C (stereo unspecified),18
9,O=C1CCCN1CC#CCn1ccnc1,460
10,CC(C#CCn1ccnc1)N1CCCC1=O (stereo unspecified),17
11,CC(C#CCN1CCCC1)N1CCN(C)C1=O (stereo unspecified),10

# Test system: Mus musculus
# Assay: ED50 value determined as oxotremorine antagonism by measuring lacrimation in mice (in vivo)
# Type: functional
row,Compound,ED50
1,CN(C)C(=O)N(C)CC#CCn1ccnc1,11.8 mg/kg
2,Cc1cncn1CC#CCN1CCN(C)C1=O,14 mg/kg
3,CC(=O)N(C)CC#CCn1cncc1C,6.6 mg/kg
4,Cc1cn(CC#CCN2CCCC2=O)c(C)n1,8 mg/kg
5,CN(C)CC#CCN(C)C(=O)N(C)C,> 100 mg/kg
6,CN1CCN(CC#CCn2ccnc2)C1=O,> 100 mg/kg
7,Cc1nccn1CC#CCN1CCCC1=O,0.45 mg/kg
8,CN(C)CC#CCN1CCN(C)C1=O,> 10 mg/kg
9,CCOC(=O)N(C)CC#CCn1ccnc1,97 mg/kg
10,CC(=O)N(C)C(C)C#CCn1cncc1C (stereo unspecified),1.1 mg/kg
11,O=C1CCCN1CC#CCn1ccnc1,> 100 mg/kg
12,COC(=O)N(C)CC#CCN(C)C,> 30 mg/kg
13,CN(C)CC#CCn1ccn(C)c1=O,> 100 mg/kg
14,CC(=O)N(C)C(C)C#CCN1CCCC1 (stereo unspecified),> 10 mg/kg
15,COC(=O)N(C)C(C)C#CCN(C)C (stereo unspecified),> 100 mg/kg
16,Cc1cncn1CC#CCN1CCNC1=O,21 mg/kg
17,COC(=O)N(C)CC#CCn1ccnc1,> 100 mg/kg
18,CC(C#CCn1ccnc1)N1CCCC1=O (stereo unspecified),2 mg/kg
19,CC(C#CCN1CCCC1)N1CCN(C)C1=O (stereo unspecified),4.5 mg/kg
20,CC(=O)N(C)CC#CCN(C)C,> 10 mg/kg

# Target: Muscarinic acetylcholine receptor
# Assay: Binding affinity to muscarinic acetylcholine receptor was determined in presence of [3H]OXO-M radioligand (in vitro)
# Type: protein assay
row,Compound,Ki
1,CN(C)CC#CCN1CCCC1=O,1.1 nM
2,CN(C)C(=O)N(C)CC#CCn1ccnc1,14.6 nM
3,Cc1cncn1CC#CCN1CCN(C)C1=O,8.6 nM
4,CC(=O)N(C)CC#CCn1cncc1C,3.61 nM
5,Cc1cn(CC#CCN2CCCC2=O)c(C)n1,68 nM
6,CN(C)CC#CCN(C)C(=O)N(C)C,16 nM
7,CN1CCN(CC#CCn2ccnc2)C1=O,2.1 nM
8,Cc1nccn1CC#CCN1CCCC1=O,0.3 nM
9,CN(C)CC#CCN1CCN(C)C1=O,4.5 nM
10,CCOC(=O)N(C)CC#CCn1ccnc1,206 nM
11,CC(=O)N(C)C(C)C#CCn1cncc1C (stereo unspecified),10 nM
12,O=C1CCCN1CC#CCn1ccnc1,1.3 nM
13,COC(=O)N(C)CC#CCN(C)C,19 nM
14,CN(C)CC#CCn1ccn(C)c1=O,37 nM
15,COC(=O)N(C)C(C)C#CCN(C)C (stereo unspecified),16 nM
16,Cc1cncn1CC#CCN1CCNC1=O,138 nM
17,COC(=O)N(C)CC#CCn1ccnc1,10.2 nM
18,CC(C#CCn1ccnc1)N1CCCC1=O (stereo unspecified),33.5 nM
19,CC(C#CCN1CCCC1)N1CCN(C)C1=O (stereo unspecified),13 nM
20,CC(=O)N(C)CC#CCN(C)C,4.2 nM
